# Laboratory results: patent publication US8536332B2, “Modulating signal transduction pathways with substituted pyridol [2,3-b] pyrazines” (Aeterna Zentaris GmbH, priority 2007, dated 2013)
row,SMILES,melting point [°C]
1,"CCNC(=O)Nc1ccc2ncc(-c3cc(C)c(C)c(C)c3)nc2n1 [Compound 151, 1-Ethyl-3-[3-(3,4,5-trimethyl-phenyl)-pyrido[2,3-b]pyrazin-6-yl]-urea]",228 to 233
2,"CCNC(=O)Nc1ccc2ncc(-c3cccc(NS(C)(=O)=O)c3)nc2n1 [Compound 120, N-{3-[6-(3-Ethyl-ureido)-pyrido[2,3-b]pyrazin-3-yl]-phenyl}-methanesulfonamide]",224 to 228
3,"CCNC(=O)Nc1ccc2ncc(Nc3ccccc3OC)nc2n1 [Compound 153, 1-Ethyl-3-[3-(2-methoxy-phenylamino)-pyrido[2,3-b]pyrazin-6-yl]-urea]",225
4,"CCNC(=S)Nc1cnc2ccc(Nc3ccc(C)c(OC)c3)nc2n1 [Compound 210, 1-Ethyl-3-[6-(3-methoxy-4-methyl-phenylamino)-pyrido[2,3-b]pyrazin-3-yl]-thiourea]",148
5,"COc1cc(-c2ccc3ncc(NC(=O)NC4CCCCC4)nc3n2)ccc1O [Compound 17, 1-Cyclohexyl-3-[6-(4-hydroxy-3-methoxy-phenyl)-pyrido[2,3-b]pyrazin-3-yl]-urea]",232 to 235
6,"CCNC(=O)Nc1ccc2ncc(-c3cccc(C(=O)OCC)c3)nc2n1 [Compound 119, 3-[6-(3-Ethyl-ureido)-pyrido[2,3-b]pyrazin-3-yl]-benzoic acid ethyl ester]",222 to 223
7,"CCNC(=O)Nc1ccc2ncc(-c3cc(C)cc(Br)c3OCc3ccccc3)nc2n1 [Compound 109, 1-[3-(2-Benzyloxy-3-bromo-5-methyl-phenyl)-pyrido[2,3-b]pyrazin-6-yl]-3-ethyl-urea]",236 to 238
8,"CCNC(=S)Nc1ccc2ncc(Nc3cccc(Cl)c3)nc2n1 [Compound 329, 1-[3-(3-Chloro-phenylamino)-pyrido[2,3-b]pyrazin-6-yl]-3-ethyl-thiourea]",> 220
9,"CCNC(=O)Nc1ccc2ncc(-c3ccccc3SC)nc2n1 [Compound 135, 1-Ethyl-3-[3-(2-methylsulfanyl-phenyl)-pyrido[2,3-b]pyrazin-6-yl]-urea]",182 to 185
10,"CCNC(=S)Nc1cnc2ccc(Nc3ccc(OC)c(Cl)c3)nc2n1 [Compound 202, 1-[6-(3-Chloro-4-methoxy-phenylamino)-pyrido[2,3-b]pyrazin-3-yl]-3-ethyl-thiourea]",225
11,"CCNC(=O)Nc1cnc2ccc(Nc3ccc(O)c(OC)c3)nc2n1 [Compound 21, 1-Ethyl-3-[6-(4-hydroxy-3-methoxy-phenylamino)-pyrido[2,3-b]pyrazin-3-yl]-urea]",255
12,"CCNC(=O)Nc1ccc2ncc(-c3cc(Cl)ccc3Cl)nc2n1 [Compound 92, 1-[3-(2,5-Dichloro-phenyl)-pyrido[2,3-b]pyrazin-6-yl]-3-ethyl-urea]",264 to 269
13,"CCNC(=O)Nc1ccc2ncc(-c3cccc(C)c3)nc2n1 [Compound 100, 1-Ethyl-3-(3-m-tolyl-pyrido[2,3-b]pyrazin-6-yl)-urea]",232 to 234
14,"CCNC(=O)Nc1ccc2ncc(-c3ccccc3OCC)nc2n1 [Compound 102, 1-[3-(2-Ethoxy-phenyl)-pyrido[2,3-b]pyrazin-6-yl]-3-ethyl-urea]",220 to 222
15,"CCNC(=O)Nc1ccc2ncc(-c3ccc(Cl)cc3)nc2n1 [Compound 122, 1-[3-(4-Chloro-phenyl)-pyrido[2,3-b]pyrazin-6-yl]-3-ethyl-urea]",244 to 247
16,"COc1cc(-c2ccc3ncc(NC(=O)Nc4c(C)noc4C)nc3n2)ccc1O [Compound 27, 1-(3,5-Dimethyl-isoxazol-4-yl)-3-[6-(4-hydroxy-3-methoxy-phenyl)-pyrido[2,3-b]pyrazin-3-yl]-urea]",249 to 252
17,"CCNC(=O)Nc1cnc2ccc(Nc3ccc(C)cc3)nc2n1 [Compound 1, 1-Ethyl-3-(6-p-tolylamino-pyrido[2,3-b]pyrazin-3-yl)-urea]",235
18,"CC(C)Oc1cccc(Nc2cnc3ccc(NC(=O)NC4CC4)nc3n2)c1 [Compound 49, 1-Cyclopropyl-3-[3-(3-isopropoxy-phenylamino)-pyrido[2,3-b]pyrazin-6-yl]-urea]",134
19,"CCNC(=O)Nc1cnc2ccc(Nc3ccc(O)cc3)nc2n1 [Compound 24, 1-Ethyl-3-[6-(4-hydroxy-phenylamino)-pyrido[2,3-b]pyrazin-3-yl]-urea]",277
20,"CCCOc1ccc(-c2cnc3ccc(NC(=O)NCC)nc3n2)cc1 [Compound 133, 1-Ethyl-3-[3-(4-propoxy-phenyl)-pyrido[2,3-b]pyrazin-6-yl]-urea]",258.7
21,"CCNC(=S)Nc1ccc2ncc(Nc3cc(OC)cc(OC)c3)nc2n1 [Compound 157, 1-[3-(3,5-Dimethoxy-phenylamino)-pyrido[2,3-b]pyrazin-6-yl]-3-ethyl-thiourea]",265
22,"CCNC(=O)Nc1ccc2ncc(Nc3cc(C(C)(C)C)ccc3O)nc2n1 [Compound 336, 1-[3-(5-tert-Butyl-2-hydroxy-phenylamino)-pyrido[2,3-b]pyrazin-6-yl]-3-ethyl-urea]",255

# Next, values leading:
row,melting point [°C],SMILES
1,246,"COCCCNC(=S)Nc1ccc2ncc(Nc3cc(OC)c(OC)c(OC)c3)nc2n1 [Compound 710, 1-(3-Methoxy-propyl)-3-[3-(3,4,5-trimethoxy-phenylamino)-pyrido[2,3-b]pyrazin-6-yl]-thiourea]"
2,235 to 238,"COc1ccc(NC(=O)Nc2cnc3ccc(-c4ccc(O)c(OC)c4)nc3n2)cc1 [Compound 625, 1-(4-Methoxy-phenyl)-3-[6-(4-hydroxy-3-methoxy-phenyl)-pyrido[2,3-b]pyrazin-3-yl]-urea]"
3,265 to 268,"CCCNC(=O)Nc1cnc2ccc(-c3cc(Cl)c(O)c(Cl)c3)nc2n1 [Compound 551, 1-[6-(3,5-Dichloro-4-hydroxy-phenyl)-pyrido[2,3-b]pyrazin-3-yl]-3-propyl-urea]"
4,258 to 261,"CNC(=S)Nc1ccc2ncc(Nc3cc(OC)c(OC)c(OC)c3)nc2n1 [Compound 692, 1-Methyl-3-[3-(3,4,5-trimethoxy-phenylamino)-pyrido[2,3-b]pyrazin-6-yl]-thiourea]"
5,255,"COc1cc(Nc2cnc3ccc(NC(=S)NCc4ccc(F)cc4)nc3n2)cc(OC)c1OC [Compound 701, 1-(4-Fluoro-benzyl)-3-[3-(3,4,5-trimethoxy-phenylamino)-pyrido[2,3-b]pyrazin-6-yl]-thiourea]"
6,250 to 252,"CCNC(=O)Nc1cnc2ccc(-c3cc(C)cc(Br)c3OC)nc2n1 [Compound 639, 1-[6-(3-Bromo-2-methoxy-5-methyl-phenyl)-pyrido[2,3-b]pyrazin-3-yl]-3-ethyl-urea]"
7,214 to 217,"COc1cc(-c2ccc3ncc(NC(=O)Nc4cccc(-n5cccc5)c4)nc3n2)ccc1O [Compound 619, 1-[6-(4-Hydroxy-3-methoxy-phenyl)-pyrido[2,3-b]pyrazin-3-yl]-3-(3-pyrrol-1-yl-phenyl)-urea]"
8,218 to 220,"COc1cc(Nc2cnc3ccc(NC(=S)NC(C)(C)C)nc3n2)cc(OC)c1OC [Compound 694, 1-tert-Butyl-3-[3-(3,4,5-trimethoxy-phenylamino)-pyrido[2,3-b]pyrazin-6-yl]-thiourea]"
9,226 to 228,"COc1cc(-c2ccc3ncc(NC(=O)N(C)c4ccc(C(C)C)cc4)nc3n2)ccc1O [Compound 635, 3-[6-(4-Hydroxy-3-methoxy-phenyl)-pyrido[2,3-b]pyrazin-3-yl]-1-(4-isopropyl-phenyl)-1-methyl-urea]"
10,233 to 236,"COc1cc(-c2ccc3ncc(NC(=O)N[C@@H]4C[C@H]4c4ccccc4)nc3n2)ccc1O [Compound 603, 1-[6-(4-Hydroxy-3-methoxy-phenyl)-pyrido[2,3-b]pyrazin-3-yl]-3-((1R,2S)-2-phenyl-cyclopropyl)-urea]"
11,215,"CCNC(=S)Nc1ccc2ncc(Nc3ccc(C)cc3C)nc2n1 [Compound 399, 1-[3-(2,4-Dimethyl-phenylamino)-pyrido[2,3-b]pyrazin-6-yl]-3-ethyl-thiourea]"
12,265 to 267,"COc1ccc(-c2ccc3ncc(NC(=O)Nc4c(C)noc4C)nc3n2)cc1OC [Compound 573, 1-[6-(3,4-Dimethoxy-phenyl)-pyrido[2,3-b]pyrazin-3-yl]-3-(3,5-dimethyl-isoxazol-4-yl)-urea]"
13,257 to 259,COc1cc(-c2ccc3ncc(NC(=O)Nc4ccc5sccc5c4)nc3n2)ccc1O [Compound 609]
14,220,"CCNC(=S)Nc1ccc2ncc(Nc3ccc(O)c(Cl)c3)nc2n1 [Compound 441, 1-[3-(3-Chloro-4-hydroxy-phenylamino)-pyrido[2,3-b]pyrazin-6-yl]-3-ethyl-thiourea]"
15,265,"CCNC(=S)Nc1ccc2ncc(Nc3ccc(F)c(F)c3)nc2n1 [Compound 433, 1-[3-(3,4-Difluoro-phenylamino)-pyrido[2,3-b]pyrazin-6-yl]-3-ethyl-thiourea]"
16,210,"CCNC(=O)Nc1ccc2ncc(Nc3ccc(C)cc3C)nc2n1 [Compound 398, 1-[3-(2,4-Dimethyl-phenylamino)-pyrido[2,3-b]pyrazin-6-yl]-3-ethyl-urea]"
17,247 to 250,"COc1cc(-c2ccc3ncc(NC(=O)Nc4ccc([N+](=O)[O-])cc4)nc3n2)ccc1O [Compound 616, 1-[6-(4-Hydroxy-3-methoxy-phenyl)-pyrido[2,3-b]pyrazin-3-yl]-3-(4-nitro-phenyl)-urea]"
18,215,"CCNC(=S)Nc1cnc2ccc(Cl)nc2n1 [Example 2, 1-(6-Chloro-pyrido[2,3-b]pyrazin-3-yl)-3-ethyl-thiourea]"
19,248 to 251,"COc1ccc(-c2ccc3ncc(NC(=O)Nc4ccccc4)nc3n2)cc1OC [Compound 580, 1-[6-(3,4-Dimethoxy-phenyl)-pyrido[2,3-b]pyrazin-3-yl]-3-phenyl-urea]"
20,234 to 235,"CCCCCCNC(=O)Nc1cnc2ccc(-c3ccc(O)c(OC)c3)nc2n1 [Compound 627, 1-Hexyl-3-[6-(4-hydroxy-3-methoxy-phenyl)-pyrido[2,3-b]pyrazin-3-yl]-urea]"
21,277,"CCNC(=S)Nc1ccc2ncc(Nc3cc(Cl)c(Cl)c(Cl)c3)nc2n1 [Compound 465, 1-Ethyl-3-[3-(3,4,5-trichloro-phenylamino)-pyrido[2,3-b]pyrazin-6-yl]-thiourea]"
